These are literature values, as cited in patent US5441941A, “1,2-dihydroellipticines with activity against CNS specific cancer” (The United States of America as represented by the …, priority 1993, dated 1995).

Where two headings read alike, the source gives them in different places.

Data set [1] concerns mouse lymphoid leukemia L-1210. Particulars: cited from earlier work.
The test system of data set [2] is Sarcoma 180 (solid). Particulars: in vivo; cited from earlier work.
In data set [3] the test system is P388. Particulars: cited from earlier work.
For data set [4], the system named is colon carcinoma. Particulars: cited from earlier work.
Data set [5] relates to M5076 reticulosarcoma. Particulars: cited from earlier work.
In data set [6] the test system is B16 melanoma. The conditions noted are these: cited from earlier work.
The test system of data set [7] is SF407. Particulars: human glioma line; cited from earlier work.
Data set [8] deals with SF126. The conditions noted are these: human glioma line; cited from earlier work.
For data set [9], the system named is SF375. The conditions noted are these: human glioma line; cited from earlier work.
The subject of data set [10] is mammary cancer. Particulars: in vivo; cited from earlier work.

As to `Cc1c2ccncc2c(C)c2c1[nH]c1ccc(O)cc12` [9-hydroxyellipticine, 9-hydroxy-5,11-dimethyl-(6H) -pyrido [4,3-b] carbazole], in data set [1] (mouse L-1210 leukemia), the antitumor activity entry is listed as “considerably high antitumor properties”.

Consider `Cc1c2ccncc2c(C)c2c1[nH]c1ccccc12` [ellipticine, 5, 11-dimethyl-6H-pyrido [4,3-b] carbazole], for which the “effect against tumor of animals” value in data set [2] is given as “effective against the tumor of animals”. In addition, in [1] (mouse L-1210 leukemia), the antitumor activity result is recorded as “effective against the tumor of animals”.

For `CCN(CC)CC[n+]1ccc2c(C)c3[nH]c4ccc(O)cc4c3c(C)c2c1` [datelliptium, 2-[(2-diethylamino)ethyl]-9-hydroxyellipticinium], the in vivo activity result in data set [3], in data set [4], in [5] and in data set [6] was “in vivo activity” each time. Also, the antitumor activity entry in data set [1] (mouse, in vivo) is “in vivo activity”.

Consider `Cc1c2cc[n+](C)cc2c(C)c2c1[nH]c1ccc(O)cc12` [elliptinium], for which the in vitro activity result in [7], in [8] and in [9] was “in vitro activity” each time.

As to `Cc1c2cc[n+](C)cc2c(C)c2c1[nH]c1ccc(O)cc12` [Celiptium, 2-methyl-9-hydroxyellipticinium acetate], in data set [10], the “effect against mammary cancer” value was “effective against mammary cancer”.
